Columns and labels:
[1] = molecular target: T1, alkane hydroxylase complex (AlkB, AlkG, AlkT) (Ectopseudomonas oleovorans, UniProt P12691); assay: whole-cell bio-oxidation, GC-FID of products; assay type: cell-based; conditions: E. coli DH1 / HB101 whole cells; DCPK inducer
T1 construct: integral membrane AlkB with electron transfer partners, co-expressed from pSTBFG(L) in whole E. coli cells; alkF also on plasmid; with Rubredoxin-2; Rubredoxin-NAD(+) reductase
T1 sequence (P12691 1-401): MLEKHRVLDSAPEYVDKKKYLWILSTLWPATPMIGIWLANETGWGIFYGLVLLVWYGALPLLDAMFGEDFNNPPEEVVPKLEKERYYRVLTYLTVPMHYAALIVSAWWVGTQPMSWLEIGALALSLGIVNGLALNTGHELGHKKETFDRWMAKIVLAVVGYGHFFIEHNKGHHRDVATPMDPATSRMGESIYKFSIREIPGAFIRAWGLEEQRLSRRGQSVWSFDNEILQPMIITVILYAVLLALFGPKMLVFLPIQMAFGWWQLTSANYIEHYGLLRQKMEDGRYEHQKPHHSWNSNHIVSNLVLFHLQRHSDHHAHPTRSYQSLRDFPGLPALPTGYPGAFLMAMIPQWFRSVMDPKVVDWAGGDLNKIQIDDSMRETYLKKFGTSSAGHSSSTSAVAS
T1 sequence (P00272 2-173 partner): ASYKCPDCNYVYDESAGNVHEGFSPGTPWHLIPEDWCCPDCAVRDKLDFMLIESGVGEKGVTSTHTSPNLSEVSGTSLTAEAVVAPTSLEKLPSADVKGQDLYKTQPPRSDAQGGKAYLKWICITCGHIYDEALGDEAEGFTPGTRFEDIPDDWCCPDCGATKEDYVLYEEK

[2] = molecular target: T2, AlkL (Ectopseudomonas oleovorans, UniProt Q00595); assay: whole-cell alkane uptake by GC and coupled AlkB oxidation, with and without alkL; assay type: cell-based; conditions: transport into E. coli; 15 min incubation for direct uptake; whole cells
T2 construct: full-length, untagged, from pSTBFGL (palkB promoter) in E. coli DH1 / HB101 with AlkBFGT
T2 sequence (Q00595 28-230): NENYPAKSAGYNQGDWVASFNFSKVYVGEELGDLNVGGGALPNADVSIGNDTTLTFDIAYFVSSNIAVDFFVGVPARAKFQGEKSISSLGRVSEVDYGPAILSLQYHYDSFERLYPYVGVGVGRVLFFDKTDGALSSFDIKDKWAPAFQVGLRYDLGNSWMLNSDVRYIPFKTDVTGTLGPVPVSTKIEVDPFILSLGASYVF

For `CCCCCCCC` [n-octane], the “whole-cell bio-oxidation, GC-FID of products” value [1] was “Oxidised products of n-octane were detected in all host cells containing either pSTBFG or pSTBFGL”.
In the case of `CCCCCCCCCCCC` [n-dodecane], the “whole-cell alkane uptake by GC and coupled AlkB oxidation, with and without alkL” value [2] is reported as “E.coli strains expressing alkL were also tested for a direct measurement of n-dodecane uptake”.

From paper PMC5376172, “Identification and use of an alkane transporter plug-in for applications in biocatalysis and whole-cell biosensing of alkanes” (Scientific Reports, 2014)
